Structures can show the parent of a compound that is named as a salt.

The values below come from US20240101531A1, “PYRIDINAMINE DERIVATIVES AND THEIR USE AS POTASSIUM CHANNEL MODULATORS” (Xenon Pharmaceuticals Inc., priority 2022, published 2024).

This test concerns the target human KV7.2/KV7.3 (Homo sapiens (Human), UniProt O43525+O43526). The experiment in a line: Potassium flux assay (IPG-2 AM dye). The format is cell-based. Conditions: TREX HEK 293 or HEK 293 cells expressing human KV7.2/KV7.3; arithmetic mean values. The essentials:
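EC50 from 16 concentrations (2-fold dilutions, top 30 μM), scaled between DMSO baseline and a known KV7.x modulator maximum. Signal is IPG-2 AM fluorescence (ex 530/em 558 nm) after 10 mM KCl challenge buffer addition, following 20 min room-temperature compound exposure of HEK 293 or TREX HEK 293 cells stably expressing human KV7.2/KV7.3.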
A word on the EC50: it is the concentration giving half of the maximal effect. As to `O[C@]1(C(F)(F)F)CCC[C@H](Oc2ccc3c(Nc4cnc(Cl)nc4)nccc3c2)C1` (racemic) [Example 145, rac-(1R,3S)-3-((1-((2-chloropyrimidin-5-yl)amino)isoquinolin-6-yl)oxy)-1-(trifluoromethyl)cyclohexan-1-ol], the EC50 was less than 1000 nM.
Next, `Clc1ccc(Nc2nccc3cc(OCc4cnn(Cc5ccccc5)c4)ccc23)cn1` [Example 295, 6-((1-benzyl-1H-pyrazol-4-yl)methoxy)-N-(6-chloropyridin-3-yl)isoquinolin-1-amine]: 1000 to 10000 nM; `O[C@@H]1CCCC[C@H]1Oc1ccc2c(Nc3ccc(Cl)nc3)nccc2c1` (relative stereo) [Example 143, trans-2-((1-((6-chloropyridin-3-yl)amino)isoquinolin-6-yl)oxy)cyclohexan-1-ol]: less than 1000 nM; `Clc1ncc(Nc2nccc3cccnc23)cn1` [Example 32, N-(2-chloropyrimidin-5-yl)-1,7-naphthyridin-8-amine]: 1000 to 10000 nM.
On to `Fc1cc2c(Nc3ccc(Cl)nc3)nccc2cc1OCC1(F)CC1` [Example 247, N-(6-chloropyridin-3-yl)-7-fluoro-6-((1-fluorocyclopropyl)methoxy)isoquinolin-1-amine], for which the EC50 was 10000 to 30000 nM.
Next, `O[C@H]1C[C@H](Oc2ccc3c(Nc4ccc(Cl)nc4)nccc3c2)C1` [Example 96, (1r,3r)-3-((1-((6-chloropyridin-3-yl)amino)isoquinolin-6-yl)oxy)cyclobutan-1-ol]: 1000 to 10000 nM; `Cc1c(COc2ccc3c(Nc4cnc(Cl)nc4)nccc3c2)cnn1C` [Example 352, N-(2-chloropyrimidin-5-yl)-6-((1,5-dimethyl-1H-pyrazol-4-yl)methoxy)isoquinolin-1-amine]: less than 1000 nM.
In the case of `N#CC1(COc2ccc3c(Nc4ccc(Cl)nc4)nccc3c2)CC1` [Example 80, 1-(((1-((6-chloropyridin-3-yl)amino)isoquinolin-6-yl)oxy)methyl)cyclopropane-1-carbonitrile], the EC50 is less than 1000 nM.
The figure for `FC1(COc2ccc3c(Nc4ccc(Cl)nc4)nccc3c2)CCOCC1` [Example 239, N-(6-chloropyridin-3-yl)-6-((4-fluorotetrahydro-2H-pyran-4-yl)methoxy)isoquinolin-1-amine] is less than 1000 nM; for `NS(=O)(=O)C1(COc2ccc3c(Nc4ccc(Cl)nc4)nccc3c2)CCC1` [Example 294, 1-(((1-((6-chloropyridin-3-yl)amino)isoquinolin-6-yl)oxy)methyl)cyclobutane-1-sulfonamide] it is less than 1000 nM.
Regarding `FC(F)(F)CNc1cnc(Nc2ccc(Cl)nc2)c2[nH]ccc12` [Example 402, NF-(6-chloropyridin-3-yl)-N^4-(2,2,2-trifluoroethyl)-1H-pyrrolo[2,3-c]pyridine-4,7-diamine], the EC50 was in the range of 1000 to 10000 nM.
The figure for `CC1(COc2ccc3c(Nc4cnc(Cl)c(O)c4)nccc3c2)COC1` [Example 42, 2-chloro-5-((6-((3-methyloxetan-3-yl)methoxy)isoquinolin-1-yl)amino)pyridin-3-ol] is less than 1000 nM; for `Clc1ccc(Nc2nccc3cc(OCc4ccccn4)ccc23)cn1` [Example 5, N-(6-chloropyridin-3-yl)-6-(pyridin-2-ylmethoxy)isoquinolin-1-amine] it is 1000 to 10000 nM.
The figure for `Clc1ccc(Nc2nccc3cc(OCC4CC4)ccc23)cn1` [Example 2, N-(6-chloropyridin-3-yl)-6-(cyclopropylmethoxy)isoquinolin-1-amine] is less than 1000 nM; for `Cn1cncc1COc1ccc2c(Nc3ccc(Cl)nc3)nccc2c1` [Example 65, N-(6-chloropyridin-3-yl)-6-((1-methyl-1H-imidazol-5-yl)methoxy)isoquinolin-1-amine] it is less than 1000 nM.
Next, “N^8-(6-chloropyridin-3-yl)-N^3-((1-methyl-1H-pyrazol-4-yl)methyl)-1,7-naphthyridine-3,8-diamine [Example 251]”: 1000 to 10000 nM; `CC(=O)N[C@H]1CC[C@H](Oc2ccc3c(Nc4ccc(Cl)nc4)nccc3c2)CC1` [Example 317, N-(trans-4-((1-((6-chloropyridin-3-yl)amino)isoquinolin-6-yl)oxy)cyclohexyl)acetamide]: 1000 to 10000 nM; `Clc1ccc(Nc2nccc3cc(OCc4cn[nH]c4C4CC4)ccc23)cn1` [Example 379, N-(6-chloropyridin-3-yl)-6-((5-cyclopropyl-1H-pyrazol-4-yl)methoxy)isoquinolin-1-amine]: less than 1000 nM.
`Clc1ccc(Nc2nccc3cc(OC4CCOCC4)ccc23)cn1` [Example 197, N-(6-chloropyridin-3-yl)-6-((tetrahydro-2H-pyran-4-yl)oxy)isoquinolin-1-amine]: the EC50 is less than 1000 nM.
With `N=[S@]1(=O)CCC[C@@H](COc2ccc3c(Nc4cnc(Cl)nc4)nccc3c2)C1` (relative stereo) [Example 366, cis-3-(((1-((2-chloropyrimidin-5-yl)amino)isoquinolin-6-yl)oxy)methyl)-1-iminohexahydro-1λ^6-thiopyran 1-oxide], the EC50 fell in the range of 1000 to 10000 nM.
On to `CS(=O)(CC1COC1)=Nc1ccc2c(Nc3ccc(Cl)nc3)nccc2c1` (stereo not shown) [Example 272, ((1-((6-chloropyridin-3-yl)amino)isoquinolin-6-yl)imino)(methyl)(oxetan-3-ylmethyl)-λ^6-sulfanone], for which the EC50 was 1000 to 10000 nM.
Next, `Clc1ccc(Nc2nccc3cc(-c4cc[nH]n4)ccc23)cn1` [Example 424, N-(6-chloropyridin-3-yl)-6-(1H-pyrazol-3-yl)isoquinolin-1-amine]: 1000 to 10000 nM; `OC1(COc2ccc3c(Nc4ccc(Cl)nc4)nccc3c2)COC1` [Example 394, 3-(((1-((6-chloropyridin-3-yl)amino)isoquinolin-6-yl)oxy)methyl)oxetan-3-ol]: 1000 to 10000 nM.
Next, `Cc1ncc(Nc2nccc3cc(OCC4CCOC4)ccc23)cn1` (stereo not shown) [Example 25, N-(2-methylpyrimidin-5-yl)-6-((tetrahydrofuran-3-yl)methoxy)isoquinolin-1-amine]: 1000 to 10000 nM; `OCc1ncc(Nc2nccc3cc(OCC4(F)CC4)ccc23)cn1` [Example 129, (5-((6-((1-fluorocyclopropyl)methoxy)isoquinolin-1-yl)amino)pyrimidin-2-yl)methanol]: 1000 to 10000 nM; `Clc1ccc(Nc2nccc3cc(Oc4ccccc4)ccc23)cn1` [Example 8, N-(6-chloropyridin-3-yl)-6-phenoxyisoquinolin-1-amine]: 1000 to 10000 nM.
The figure for `Cc1ccc(COc2ccc3c(Nc4ccc(Cl)nc4)nccc3c2)cn1` [Example 194, N-(6-chloropyridin-3-yl)-6-((6-methylpyridin-3-yl)methoxy)isoquinolin-1-amine] is less than 1000 nM.
Take `Clc1ncc(Nc2nccc3cc(OCc4cn[nH]c4)ccc23)cn1` [Example 381, 6-((1H-pyrazol-4-yl)methoxy)-N-(2-chloropyrimidin-5-yl)isoquinolin-1-amine]: the EC50 was less than 1000 nM.
Next, `Cc1ncc(Nc2nccc3cc(OCc4cnoc4)ccc23)cn1` [Example 241, 6-(isoxazol-4-ylmethoxy)-N-(2-methylpyrimidin-5-yl)isoquinolin-1-amine]: less than 1000 nM; `Cc1ncc(Nc2nccc3c(F)c(OCC4CC4)ccc23)cn1` [Example 233, 6-(cyclopropylmethoxy)-5-fluoro-N-(2-methylpyrimidin-5-yl)isoquinolin-1-amine]: 10000 to 30000 nM.
With `Clc1ccc(Nc2nccc3cc(OCc4cnccn4)ccc23)cn1` [Example 94, N-(6-chloropyridin-3-yl)-6-(pyrazin-2-ylmethoxy)isoquinolin-1-amine], the EC50 is 10000 to 30000 nM.
Next, `FC1(COc2ccc3c(Nc4ccc(Cl)nc4)nccc3c2)CCOC1` (stereo in doubt) [Example 365, (S)—N-(6-chloropyridin-3-yl)-6-((3-fluorotetrahydrofuran-3-yl)methoxy)isoquinolin-1-amine]: less than 1000 nM; `Cc1ncc(Nc2nccc3cc(OCc4cnn(C)c4)ccc23)cc1O` [Example 324, 2-methyl-5-((6-((1-methyl-1H-pyrazol-4-yl)methoxy)isoquinolin-1-yl)amino)pyridin-3-ol]: 1000 to 10000 nM.
Next, `Clc1ccc(Nc2nccc3cc(OCCCc4cn[nH]c4)ccc23)cn1` [Example 260, 6-(3-(1H-pyrazol-4-yl)propoxy)-N-(6-chloropyridin-3-yl)isoquinolin-1-amine]: less than 1000 nM.
The figure for `COc1ccc2c(Nc3ccc(Cl)nc3)ncc(OC)c2c1` [Example 410, N-(6-chloropyridin-3-yl)-4,6-dimethoxyisoquinolin-1-amine] is 10000 to 30000 nM.
As to `Clc1ccc(Nc2nccc3cc(OCC4CC5(CCO5)C4)ccc23)cn1` (stereo not shown) [Example 114, 6-((1-oxaspiro[3.3]heptan-6-yl)methoxy)-N-(6-chloropyridin-3-yl)isoquinolin-1-amine], the EC50 was less than 1000 nM.
On to `COc1cc(Nc2nccc3cc(OCc4cnn(C)c4)ccc23)cnc1C` [Example 55, N-(5-methoxy-6-methylpyridin-3-yl)-6-((1-methyl-1H-pyrazol-4-yl)methoxy)isoquinolin-1-amine formate], for which the EC50 is less than 1000 nM.
The figure for `FC1(COc2ccc3c(Nc4cnc(Cl)nc4)nccc3c2)CC1` [Example 68, N-(2-chloropyrimidin-5-yl)-6-((1-fluorocyclopropyl)methoxy)isoquinolin-1-amine] is less than 1000 nM; for `Cc1ncc(Nc2nccc3cc(OCC4(C#N)CC(F)(F)C4)ccc23)cn1` [Example 235, 3,3-difluoro-1-(((1-((2-methylpyrimidin-5-yl)amino)isoquinolin-6-yl)oxy)methyl)cyclobutane-1-carbonitrile formate] it is less than 1000 nM; for `COc1ncc(COc2ccc3c(Nc4ccc(Cl)nc4)nccc3c2)cn1` [Example 186, N-(6-chloropyridin-3-yl)-6-((2-methoxypyrimidin-5-yl)methoxy)isoquinolin-1-amine] it is 1000 to 10000 nM.
